Measurements published in PMC12369479 (Journal of Experimental Botany, 2025).
Read-outs that look alike come from different tables or passages of the source.

What was measured:
ZmADK2 [1] = molecular target: T1, ZmADK2 (Zea mays, UniProt B4FFH8, T4S); assay: ADK activity, coupled reaction with PK and LDH; format: biochemical; conditions: pH 7.5
Description: (§1) Substrate analogs were purchased from Sigma-Aldrich (www.sigmaaldrich.com). The ADK activity was measured spectrophotometrically on an Agilent 8453 UV-Vis spectrophotometer (www.agilent.com) at 30 °C using a coupled reaction with pyruvate kinase (PK) and lactate dehydrogenase (LDH) (www.sigmaaldrich.com) ([Blondin et al., 1994]). In this assay, PK converts ADP produced by ADK and phosphoenolpyruvate (PEP) to pyruvate. Subsequently, LDH then converts pyruvate to lactate using the coenzyme NADH, with the conversion monitored at 340 nm. The reaction was conducted in 50 mM Tris–HCl buffer at pH 7.5, containing 50 mM KCl, 6 mM MgCl2, 300 µM PEP, 200 µM NADH, 10 mM ATP, 2 U of PK, and 2.5 U of LDH, using various nucleoside substrates. Kinetic constants were determined using GraphPad Prism 8.0 software (www.graphpad.com). Each measurement was performed six times using repetitive purified enzymes. The activities of all five ADKs were also measured by HPLC ([Moffatt et al., 1991]). The reaction mixture comprised 50 mM Tris–HCl pH 7.5, 5 mM MgCl2, 0.5 mM DTT, 30 mM NaF, 5 mM ATP, 40 µM substrate, and 2–150 ng of purified ADK, depending on the isoform. The reaction was incubated at 30 °C for up to 1 h. […] Similarly, the conversion of cytokinin ribosides to monophosphates was followed on a LiChrosphere 60 RP-Select B (5 µm) LiChroCART column 125-4 column equilibrated with 10 mM triethylamine at pH 5.4 plus 10% methanol, and stepwise eluted with 100% methanol.

ZmADK2 [2] = molecular target: T1, ZmADK2; assay: Binding affinity by microscale thermophoresis (MST); conditions: for Kd: MST
Description: (§2) The microscale thermophoresis (MST) method was used to determine the binding affinity of various ribosides for ZmADK2 and PpADK1. Proteins were fluorescently labeled with RED-tris-NTA dye (www.nanotemper-technologies.com) using a 1:1 dye/protein molar ratio. The labeled protein was adjusted to 100–300 nM in 50 mM HEPES buffer pH 7.5, 1 mM MgCl2, and 0.2% Tween. Measurements were performed in premium capillaries on a Monolith NT.115 instrument at 30 °C with 5 s/30 s/5 s laser off/on/off times, respectively, with continuous sample fluorescence recording. Thermal stability was measured by nano-differential scanning fluorimetry on a Prometheus NT.48 instrument (www.nanotemper-technologies.com) in various buffers covering a pH (7.0–9.5) and temperature range (25–95 °C), with a heating rate of 1 °C min^–1, and using NT melting control software. Protein unfolding was measured by detecting the temperature-induced change in tryptophan fluorescence intensity at emission wavelengths of 330±5 nm and 350±5 nm. The melting temperature (Tm) was deduced from the maximum of the first derivative of the fluorescence ratios F350/F330.

ZmADK1 = ZmADK1 (Zea mays, UniProt K7UH13); assay: ADK activity, coupled reaction with PK and LDH; conditions: 10 mM ATP, pH 7.5, 30 °C; for Specific activity: 100 µM substrate
Description: as §1

PpADK2 = PpADK2 (Physcomitrium patens, UniProt A9RF27); assay: ADK activity, coupled reaction with PK and LDH; conditions: 10 mM ATP, pH 7.5, 30 °C; for Specific activity: 100 µM substrate
Description: as §1

rabbit ADK = system: rabbit ADK; set-up: method as in Miller et al., 1979a; conditions: ref Miller et al., 1979a; cited from earlier work
PpADK1 [3] = molecular target: T2, PpADK1 (Physcomitrium patens, UniProt O49923); assay: ADK activity, coupled reaction with PK and LDH; format: biochemical, Physcomitrella patens; conditions: 100 µM substrate, 10 mM ATP, pH 7.5, 30 °C
T2 construct: made in house; host or cells: E. coli T7 Express Iq
Description: as §1

PpADK1 [4] = molecular target: T2, PpADK1; assay: Binding affinity by microscale thermophoresis (MST); set-up: species or system Physcomitrella patens
Description: as §2

ZmADK3 = ZmADK3 (Zea mays, UniProt A0A1D6E5Z5); assay: ADK activity, coupled reaction with PK and LDH; format: biochemical; conditions: ZmADK3, 10 mM ATP, pH 7.5, 30 °C; for Specific activity: 100 µM substrate
Description: Substrate analogs were purchased from Sigma-Aldrich (www.sigmaaldrich.com). […] In this assay, PK converts ADP produced by ADK and phosphoenolpyruvate (PEP) to pyruvate. Subsequently, LDH then converts pyruvate to lactate using the coenzyme NADH, with the conversion monitored at 340 nm. The reaction was conducted in 50 mM Tris–HCl buffer at pH 7.5, containing 50 mM KCl, 6 mM MgCl2, 300 µM PEP, 200 µM NADH, 10 mM ATP, 2 U of PK, and 2.5 U of LDH, using various nucleoside substrates. Kinetic constants were determined using GraphPad Prism 8.0 software (www.graphpad.com). Each measurement was performed six times using repetitive purified enzymes. […] The reaction mixture comprised 50 mM Tris–HCl pH 7.5, 5 mM MgCl2, 0.5 mM DTT, 30 mM NaF, 5 mM ATP, 40 µM substrate, and 2–150 ng of purified ADK, depending on the isoform. The reaction was incubated at 30 °C for up to 1 h.

all five ADKs = assay: ADK kinetics, coupled reaction (summary for all isoforms); format: biochemical, Zea mays, Physcomitrella patens; conditions: range over all five ADKs
Description: Substrate analogs were purchased from Sigma-Aldrich (www.sigmaaldrich.com). The ADK activity was measured spectrophotometrically on an Agilent 8453 UV-Vis spectrophotometer (www.agilent.com) at 30 °C using a coupled reaction with pyruvate kinase (PK) and lactate dehydrogenase (LDH) (www.sigmaaldrich.com) ([Blondin et al., 1994]). In this assay, PK converts ADP produced by ADK and phosphoenolpyruvate (PEP) to pyruvate. Subsequently, LDH then converts pyruvate to lactate using the coenzyme NADH, with the conversion monitored at 340 nm. The reaction was conducted in 50 mM Tris–HCl buffer at pH 7.5, containing 50 mM KCl, 6 mM MgCl2, 300 µM PEP, 200 µM NADH, 10 mM ATP, 2 U of PK, and 2.5 U of LDH, using various nucleoside substrates. Kinetic constants were determined using GraphPad Prism 8.0 software (www.graphpad.com). Each measurement was performed six times using repetitive purified enzymes. The activities of all five ADKs were also measured by HPLC ([Moffatt et al., 1991]). The reaction mixture comprised 50 mM Tris–HCl pH 7.5, 5 mM MgCl2, 0.5 mM DTT, 30 mM NaF, 5 mM ATP, 40 µM substrate, and 2–150 ng of purified ADK, depending on the isoform. The reaction was incubated at 30 °C for up to 1 h. […]

[5] = KD, 50 mM HEPES pH 7.5, 1 mM MgCl2, first or only binding event
[6] = ZmADK2, 100 µM substrate, 10 mM ATP, 30 °C
[7] = 50 mM HEPES pH 7.5, 1 mM MgCl2, first or only binding event, read-out: KD

Sequence of PpADK2 (A9RF27 entry or part of it): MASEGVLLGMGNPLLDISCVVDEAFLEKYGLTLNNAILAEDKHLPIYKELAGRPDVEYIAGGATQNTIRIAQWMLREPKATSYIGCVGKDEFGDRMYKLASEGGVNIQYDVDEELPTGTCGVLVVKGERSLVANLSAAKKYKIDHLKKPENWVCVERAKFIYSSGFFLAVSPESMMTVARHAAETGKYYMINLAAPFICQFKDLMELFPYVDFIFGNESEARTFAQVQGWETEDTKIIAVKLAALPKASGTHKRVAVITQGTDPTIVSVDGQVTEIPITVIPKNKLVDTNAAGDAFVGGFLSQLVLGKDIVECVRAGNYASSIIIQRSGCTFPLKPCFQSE
T2 sequence (O49923 whole entry): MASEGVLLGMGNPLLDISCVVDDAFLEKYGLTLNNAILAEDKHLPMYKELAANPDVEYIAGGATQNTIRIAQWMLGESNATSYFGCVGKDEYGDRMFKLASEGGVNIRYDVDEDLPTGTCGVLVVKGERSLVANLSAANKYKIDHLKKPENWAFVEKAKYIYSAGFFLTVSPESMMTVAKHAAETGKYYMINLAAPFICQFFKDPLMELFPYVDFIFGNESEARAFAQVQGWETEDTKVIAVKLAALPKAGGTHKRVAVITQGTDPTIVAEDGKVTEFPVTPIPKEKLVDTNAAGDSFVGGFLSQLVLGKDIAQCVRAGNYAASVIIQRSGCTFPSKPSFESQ
Sequence of ZmADK3 (A0A1D6E5Z5 entry or part of it): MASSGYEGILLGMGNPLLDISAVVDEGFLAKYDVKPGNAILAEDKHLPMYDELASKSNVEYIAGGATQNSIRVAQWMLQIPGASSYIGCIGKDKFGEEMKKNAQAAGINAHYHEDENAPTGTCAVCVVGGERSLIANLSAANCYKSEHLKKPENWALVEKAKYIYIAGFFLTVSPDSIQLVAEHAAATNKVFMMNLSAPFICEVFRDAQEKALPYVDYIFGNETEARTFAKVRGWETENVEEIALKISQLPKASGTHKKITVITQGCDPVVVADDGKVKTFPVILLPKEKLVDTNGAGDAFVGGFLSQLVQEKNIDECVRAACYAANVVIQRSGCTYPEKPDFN
Sequence of ZmADK1 (K7UH13 entry or part of it): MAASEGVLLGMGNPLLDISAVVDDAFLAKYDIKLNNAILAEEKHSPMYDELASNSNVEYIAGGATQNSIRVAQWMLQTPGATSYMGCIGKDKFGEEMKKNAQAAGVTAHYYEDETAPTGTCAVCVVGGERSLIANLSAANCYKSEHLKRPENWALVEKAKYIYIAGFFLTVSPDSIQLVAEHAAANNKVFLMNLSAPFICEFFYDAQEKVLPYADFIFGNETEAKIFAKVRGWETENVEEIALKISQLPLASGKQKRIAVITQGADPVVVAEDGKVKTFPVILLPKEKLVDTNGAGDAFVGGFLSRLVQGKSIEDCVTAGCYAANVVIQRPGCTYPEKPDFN
T1 sequence (B4FFH8 1-342 T4S): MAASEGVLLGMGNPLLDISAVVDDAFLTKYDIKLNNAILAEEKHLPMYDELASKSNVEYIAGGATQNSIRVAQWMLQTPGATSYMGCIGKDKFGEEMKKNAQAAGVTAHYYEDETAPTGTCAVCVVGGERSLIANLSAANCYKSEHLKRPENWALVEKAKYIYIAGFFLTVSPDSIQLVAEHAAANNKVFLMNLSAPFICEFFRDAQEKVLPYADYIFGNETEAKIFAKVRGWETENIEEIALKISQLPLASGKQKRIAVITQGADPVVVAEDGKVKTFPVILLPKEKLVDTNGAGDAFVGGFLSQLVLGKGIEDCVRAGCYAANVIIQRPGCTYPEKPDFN

O=c1ccn([C@@H]2O[C@H](CO)[C@@H](O)[C@H]2O)c(=O)[nH]1 [Uridine]
Km (ZmADK2 [1]; ZmADK2, 10 mM ATP, 30 °C): > 1000 µM | kcat (ZmADK2 [1]; ZmADK2, 10 mM ATP, 30 °C): 0.15±0.03 s^–1 | Kd (ZmADK2 [2]; [5]): > 5000 µM

CC(C)=CCNc1ncnc2c1ncn2C1OC(CO)C(O)C1O (centres unmarked) [iPR, N ^6-isopentenyl adenosine]
Specific activity (ZmADK1): 2.8±0.3 nmol s^–1 mg^–1 | Km (ZmADK1): 8.5 ± 0.7 µM | kcat (ZmADK1): 0.10±0.002 s^–1 | Specific activity (PpADK2): 0.83±0.08 nmol s^–1 mg^–1 | Km (PpADK2): 4 ± 0.3 µM | kcat (PpADK2): 0.03±0.001 s^–1 | Km (rabbit ADK): 7 µM | activity compared with Ado (rabbit ADK): 69% | Specific activity (PpADK1 [3]): 0.93±0.11 nmol s^–1 mg^–1 | Kd (PpADK1 [4]; [5]): 5.5 µM | Specific activity (ZmADK2 [1]): 4.1±0.4 nmol s^–1 mg^–1 | kcat (ZmADK2 [1]): 0.19±0.01 s^–1 | Specific activity (ZmADK3): 5.1±0.3 nmol s^–1 mg^–1 | Km (ZmADK3): 4.3 ± 0.4 µM | kcat (ZmADK3): 0.22±0.007 s^–1 | Kd (ZmADK2 [2]; [5]): 4.8 ± 1.1 µM | Km (all five ADKs): 4 to 12 µM

CN(C)c1ncnc2c1ncn2[C@@H]1O[C@H](CO)[C@@H](O)[C@H]1O [N ^6,N^6-DimethylAdo, 6-(dimethylamino)-9H-purine-9-β-D-riboside]
Specific activity (ZmADK1): 3.0±0.3 nmol s^–1 mg^–1 | Specific activity (PpADK2): 0.86±0.03 nmol s^–1 mg^–1 | Specific activity (PpADK1 [3]): 0.91±0.02 nmol s^–1 mg^–1 | Specific activity (ZmADK2 [1]; [6]): 3.2±0.0 nmol s^–1 mg^–1 | Km (ZmADK2 [1]; ZmADK2, 10 mM ATP, 30 °C): 11.2 ± 2.8 µM | kcat (ZmADK2 [1]; ZmADK2, 10 mM ATP, 30 °C): 0.20±0.02 s^–1 | Specific activity (ZmADK3): 5.1±0.4 nmol s^–1 mg^–1 | Kd (ZmADK2 [2]; [7]): 12.3 ± 4.6 µM

OC[C@H]1O[C@@H](n2cnc3c(NCc4ccccc4)ncnc32)[C@H](O)[C@@H]1O [BAPR, 6-benzylaminopurine riboside]
Specific activity (ZmADK1): 3.3±0.2 nmol s^–1 mg^–1 | Specific activity (PpADK2): 0.89±0.07 nmol s^–1 mg^–1 | Km (rabbit ADK): 12 µM | activity compared with Ado (rabbit ADK): 29% | Specific activity (PpADK1 [3]): 0.84±0.04 nmol s^–1 mg^–1 | Specific activity (ZmADK2 [1]; [6]): 5.1±0.6 nmol s^–1 mg^–1 | Specific activity (ZmADK3): 5.3±0.4 nmol s^–1 mg^–1

Nc1ncnc2c1ncn2[C@@H]1O[C@H](COP(=O)(O)OP(=O)(O)OP(=O)(O)OP(=O)(O)OP(=O)(O)OC[C@H]2O[C@@H](n3cnc4c(N)ncnc43)[C@H](O)[C@@H]2O)[C@@H](O)[C@H]1O [AP5A, diadenosine pentaphosphate]
Kd (PpADK1 [4]; [7]): 8.1 ± 1.1 µM | Kd (PpADK1 [4]; second binding event (ATP site), read-out: second (higher) KD value): 630 ± 120 µM | Kd (ZmADK2 [2]; [7]): 14.5 ± 9.2 µM | Kd (ZmADK2 [2]; second binding event (ATP site), read-out: second KD value): 949 ± 46 µM

Nc1nc2c(ncn2[C@@H]2O[C@H](CO)[C@@H](O)[C@H]2O)c(=O)[nH]1 [Guanosine]
Kd (ZmADK2 [2]; [5]): 217 ± 107 µM

CC(C)Nc1ncnc2c1ncn2[C@@H]1O[C@H](CO)[C@@H](O)[C@H]1O [N ^6-IsopropylAdo]
Specific activity (ZmADK1): 2.2±0.2 nmol s^–1 mg^–1 | Specific activity (PpADK2): 0.83±0.05 nmol s^–1 mg^–1 | Specific activity (PpADK1 [3]): 0.96±0.09 nmol s^–1 mg^–1 | Specific activity (ZmADK2 [1]; [6]): 3.9±0.5 nmol s^–1 mg^–1 | Km (ZmADK2 [1]; ZmADK2, 10 mM ATP, 30 °C): 54.8 ± 5.8 µM | kcat (ZmADK2 [1]; ZmADK2, 10 mM ATP, 30 °C): 0.19±0.01 s^–1 | Specific activity (ZmADK3): 3.8±0.3 nmol s^–1 mg^–1 | Kd (ZmADK2 [2]; [7]): 52.8 ± 13.9 µM

Nc1ncnc2c1ncn2C1CC(O)C(CO)O1 (centres unmarked) [2′-DeoxyAdo]
Km (rabbit ADK): 575 µM | Km (ZmADK2 [1]; ZmADK2, 10 mM ATP, 30 °C): 506 ± 39 µM | kcat (ZmADK2 [1]; ZmADK2, 10 mM ATP, 30 °C): 0.46±0.02 s^–1 | Km (ZmADK2 [1]; ZmADK2, 10 mM ATP, 30 °C, listed as 2′-deoxyAdo): ~500 µM | Kd (ZmADK2 [2]; 50 mM HEPES pH 7.5, 1 mM MgCl2, first or only binding event, listed as 2′-deoxyAdo, read-out: KD): ~500 µM | Kd (ZmADK2 [2]; [7]): 505 ± 94 µM | weaker affinity compared with Ado (ZmADK2 [2]; ratio of KD values): ~ 1200 fold

CC(C)CNc1ncnc2c1ncn2[C@@H]1O[C@H](CO)[C@@H](O)[C@H]1O [N ^6-IsobutylAdo]
Specific activity (ZmADK1): 2.1±0.4 nmol s^–1 mg^–1 | Specific activity (PpADK2): 0.75±0.08 nmol s^–1 mg^–1 | Specific activity (PpADK1 [3]): 0.90±0.06 nmol s^–1 mg^–1 | Specific activity (ZmADK2 [1]; [6]): 4.2±0.6 nmol s^–1 mg^–1 | Km (ZmADK2 [1]; ZmADK2, 10 mM ATP, 30 °C): 70.4 ± 8.9 µM | kcat (ZmADK2 [1]; ZmADK2, 10 mM ATP, 30 °C): 0.21±0.01 s^–1 | Specific activity (ZmADK3): 4.8±0.5 nmol s^–1 mg^–1 | Kd (ZmADK2 [2]; [7]): 45.9 ± 9.3 µM

CNc1ncnc2c1ncn2[C@@H]1O[C@H](CO)[C@@H](O)[C@H]1O [N ^6-MethylAdo, 6-methylamino-9H-purine-9-β-D-riboside]
Specific activity (ZmADK1): 2.7±0.2 nmol s^–1 mg^–1 | Specific activity (PpADK2): 0.86±0.03 nmol s^–1 mg^–1 | Specific activity (PpADK1 [3]): 0.89±0.00 nmol s^–1 mg^–1 | Specific activity (ZmADK2 [1]; [6]): 2.9±0.3 nmol s^–1 mg^–1 | Km (ZmADK2 [1]; ZmADK2, 10 mM ATP, 30 °C): 10.7 ± 1.5 µM | kcat (ZmADK2 [1]; ZmADK2, 10 mM ATP, 30 °C): 0.24±0.02 s^–1 | Specific activity (ZmADK3): 5.1±0.4 nmol s^–1 mg^–1 | Kd (ZmADK2 [2]; [7]): 8.7 ± 2.5 µM
